# Experimental data: publication PMC11638965, “Leveraging Dual-Ligase Recruitment to Enhance Protein Degradation via a Heterotrivalent Proteolysis Targeting Chimera” (Journal of the American Chemical Society, 2024)
# pEC50: −log10 of the molar value. Where two headings read alike, the source gives them in different places.
# Columns and labels:
# RKO WT cells = assay: cells; format: cell-based, human
# Protocol: (§1) RKO WT, VHL KO, CRBN KO and CRBN/VHL dKO cells were cultured in Dulbecco’s modified Eagle’s medium supplemented with 10% FCS and 1% penicillin–streptomycin. RKO CRBN KO and VHL KO were generated previously.[45] RKO CRBN/VHL dKO cells were generated by transiently expressing pSpCas9(BB)-2A-GFP (PX458) (Addgene 48138) loaded with a short guide RNA (sgRNA) targeting VHL (Fwd: […], Rev: […]) in RKO CRBN KO cells. Clones were single cell seeded and checked for VHL and CRBN double deletion via Western blot or PCR on genomic DNA (gDNA).
# Cells were seeded in 96-well plates at a cell density of 3750 cells per well and treated for 3 days with DMSO or drug at ten √10 serial diluted concentrations. […] Cell viability was assessed using the CellTiter-Glo assay (CellTiter-Glo Luminescent Cell Viability Assay, Promega G7573) according to manufacturer instructions. Luminescence signal was measured on a Multilabel Plate Reader Platform Victor X3 model 2030 (PerkinElmer). Survival curves and EC50 values were determined using GraphPad Prism v.10.0.3 by fitting a nonlinear regression to the log10-transformed drug concentration and the relative viability after normalization of each data point to the mean luminescence of the lowest drug concentration.
# BRD2 = target: T1, BRD2 (Homo sapiens, UniProt P25440); assay: Live cell kinetic HiBiT degradation assay, HiBiT-BRD2 HEK293 cells; format: cell-based; details: HiBiT-BRD2 CRISPR knock-in HEK293 cells, live cell kinetic degradation, 24 h; read-out: Dmax 50 BRD2
# T1 construct: HiBiT, is appended to the N-terminus of endogenous BRD2, BRD3, and BRD4; endogenous in cells
# T1 sequence (P25440 whole entry): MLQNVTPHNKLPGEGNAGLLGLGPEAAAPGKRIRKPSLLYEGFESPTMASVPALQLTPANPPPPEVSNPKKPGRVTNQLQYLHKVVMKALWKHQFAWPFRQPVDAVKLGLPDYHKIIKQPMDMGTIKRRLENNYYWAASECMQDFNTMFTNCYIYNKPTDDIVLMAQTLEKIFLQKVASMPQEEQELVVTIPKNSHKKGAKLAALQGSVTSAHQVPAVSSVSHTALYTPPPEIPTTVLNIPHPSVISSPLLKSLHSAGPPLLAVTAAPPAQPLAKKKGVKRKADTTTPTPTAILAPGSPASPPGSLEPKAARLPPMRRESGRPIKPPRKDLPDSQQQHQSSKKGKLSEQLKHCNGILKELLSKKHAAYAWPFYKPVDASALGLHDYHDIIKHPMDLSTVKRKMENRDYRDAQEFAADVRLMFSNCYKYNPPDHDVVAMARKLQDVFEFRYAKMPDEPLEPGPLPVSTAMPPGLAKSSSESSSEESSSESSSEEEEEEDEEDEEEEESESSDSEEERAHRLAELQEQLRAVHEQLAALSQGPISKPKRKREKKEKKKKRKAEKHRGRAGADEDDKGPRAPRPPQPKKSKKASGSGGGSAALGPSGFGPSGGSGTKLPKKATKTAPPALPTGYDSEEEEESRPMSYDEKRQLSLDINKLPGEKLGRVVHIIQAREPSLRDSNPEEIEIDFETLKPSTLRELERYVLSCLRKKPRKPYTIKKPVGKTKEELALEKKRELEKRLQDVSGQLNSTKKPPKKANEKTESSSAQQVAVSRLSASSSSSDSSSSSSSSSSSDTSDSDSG
# Protocol: (§2) HEK293 HiBiT-BRD2 (LgBiT stable), HEK293 HiBiT-BRD3 (LgBiT stable), and HEK293 HiBiT-BRD4 (LgBiT stable) were created using CRISPR/Cas9 to insert at HiBiT tag at the N-terminal genomic loci of BRD2, BRD3, or BRD4 in a cell line stably expressing LgBiT protein as described previously.[23]
# (§3) For kinetic degradation experiments, HEK293 HiBiT-BRD2, 3, or 4 (LgBiT stable) cells and HEK293 HiBiT-BRD4 (LgBiT) CRBN KO and VHL KO cells were plated at 20,000 cells/well in DMEM +10% FBS in white 96-well tissue culture plates and allowed to adhere overnight. The next day, media was removed and 90 μL of prewarmed CO2-independent medium (Gibco) containing Endurazine (Promega) at a 1:100 dilution from stock was added. Plates were incubated at 37 °C for 3 h to allow luminescence to equilibrate. A threefold dilution series of each PROTAC at 10x the desired final concentration was prepared (with the amount of DMSO in each treatment condition kept constant). After luminescence equilibration, a preread luminescence measurement was taken (prior to compound addition) to allow for baseline normalization to account for possible plating differences. Cells were then treated with 10 μL of the prepared PROTAC dilution series (in triplicate or quadruplicate). Treated plates were placed in a GloMax Discover luminometer (Promega) prewarmed to 37 °C and luminescence measurements were obtained every 7 min for 24 h. Kinetic degradation plots were obtained by first normalizing time course luminescence readings in each well to the preread measurement, then to the average value of the DMSO only control at each time point. Data was analyzed using GraphPad Prism (version 8) and excel. Dmax values were identified as the lowest luminescence reading in each well. Rate constant values were calculated using a one phase exponential decay Y = (Y0-Plateau) e(K*^X) + Plateau using Prism (Y0 constrained to 1). Dmax 50 values were calculated by plotting Dmax as a function of concentration, then fitting plots using the following equation: [drawing 1] to determine IC50.
# BRD4 = BRD4 (Homo sapiens, UniProt O60885); assay: Live cell kinetic HiBiT degradation assay, HiBiT-BRD4 HEK293 cells (parental, CRBN KO, VHL KO); format: cell-based; details: for fold drop in BRD4 degradation potency (Dmax 50) when CRBN recruitment was outcompeted by pomalidomide: 20 μM pomalidomide vs vehicle, HiBiT-BRD4 HEK293 cells; for pEC50: HiBiT-BRD4 CRISPR knock-in HEK293 cells, live cell kinetic degradation, 24 h, read-out: Dmax 50 BRD4
# Protocol: as §2, §3
# HiBiT-BRD4 (LgBiT stable) HEK293 cells (Promega) were used to generate both VHL KO HiBiT-BRD4 (LgBiT stable) and CRBN KO HiBiT-BRD4 (LgBiT stable) cell lines. For VHL, gRNAs targeting exon 1 ([…]) and exon 2 ([…]) and for CRBN, gRNAs targeting exon 3 ([…]) and exon 6 ([…]) were purchased from IDT DNA (Table 5). For each gRNA, tracrRNA/crRNA duplexes were formed by combining 10 μL of 100 μM Alt-R […] (IDT), 100 μM Alt-R crRNA (IDT) and heating at 95C for 5 min, then were allowed to cool to room temp for 20 min. RNPs were then formed by combining 75 pmol Cas9 (IDT) with 2.4 μL total of prepared tracrRNA/crRNA complex (1.2 μL for each gRNA targeting each exon). Cells were then trypsinized and resuspended at 10,000,000 cells/mL in 1 mL of Mirus Ingenio electroporation solution. Three μL of 100 μM electroporation enhancer (Mirus) was added, along with 3 μL of RNP solution. Cells were electroporated in 2 mm cuvettes using a BioRad system (190 V, 950 μF, infinite resistance) and were then plated in a T75 flask in full growth medium to allow for recovery. After recovery from electroporation, knockout pools were sorted for single cells in 96-well tissue culture treated plates. Clonal populations which expanded from single cells were then screened for loss of function of VHL by treating with MZ1, or loss of function of CRBN by treating with dBET6, using a HiBiT-BRD4 luminescent readout assay. Genomic DNA isolated from candidate clones was then PCR-amplified (Table of primers below), Gibson-assembled into a pF1A plasmid backbone, transformed into E. coli., and then Sanger sequenced to confirm presence of indels in the targeted exons. […] VHL exon 3 carried a 19 bp deletion on one allele, and a 1 bp insertion on the other allele, both occurring after the premature stop codon in exon 1.
# RKO CRBN KO cells = assay: Cell viability assay (CellTiter-Glo); format: cell-based, human
# Protocol: as §1
# (§4) Cells were seeded in 96-well plates at a cell density of 3750 cells per well and treated for 3 days with DMSO or drug at ten √10 serial diluted concentrations. Starting concentration for all drugs was 10 μM, and each treatment was performed in biological triplicates. Cell viability was assessed using the CellTiter-Glo assay (CellTiter-Glo Luminescent Cell Viability Assay, Promega G7573) according to manufacturer instructions. Luminescence signal was measured on a Multilabel Plate Reader Platform Victor X3 model 2030 (PerkinElmer). Survival curves and EC50 values were determined using GraphPad Prism v.10.0.3 by fitting a nonlinear regression to the log10-transformed drug concentration and the relative viability after normalization of each data point to the mean luminescence of the lowest drug concentration.
# RKO CRBN/VHL dKO cells = assay: Cell viability assay (CellTiter-Glo); format: cell-based, human; details: read-out: EC50 RKO CRBN/VHL dKO
# Protocol: as §1, §4
# RKO VHL KO cells = assay: Cell viability assay (CellTiter-Glo); format: cell-based, human
# Protocol: as §1, §4
# BRD3 = target: T2, BRD3 (Homo sapiens, UniProt Q15059); assay: Live cell kinetic HiBiT degradation assay, HiBiT-BRD3 HEK293 cells; format: cell-based; details: HiBiT-BRD3 CRISPR knock-in HEK293 cells, live cell kinetic degradation, 24 h; read-out: Dmax 50 BRD3
# T2 construct: HiBiT, is appended to the N-terminus of endogenous BRD2, BRD3, and BRD4; endogenous in cells
# T2 sequence (Q15059 whole entry): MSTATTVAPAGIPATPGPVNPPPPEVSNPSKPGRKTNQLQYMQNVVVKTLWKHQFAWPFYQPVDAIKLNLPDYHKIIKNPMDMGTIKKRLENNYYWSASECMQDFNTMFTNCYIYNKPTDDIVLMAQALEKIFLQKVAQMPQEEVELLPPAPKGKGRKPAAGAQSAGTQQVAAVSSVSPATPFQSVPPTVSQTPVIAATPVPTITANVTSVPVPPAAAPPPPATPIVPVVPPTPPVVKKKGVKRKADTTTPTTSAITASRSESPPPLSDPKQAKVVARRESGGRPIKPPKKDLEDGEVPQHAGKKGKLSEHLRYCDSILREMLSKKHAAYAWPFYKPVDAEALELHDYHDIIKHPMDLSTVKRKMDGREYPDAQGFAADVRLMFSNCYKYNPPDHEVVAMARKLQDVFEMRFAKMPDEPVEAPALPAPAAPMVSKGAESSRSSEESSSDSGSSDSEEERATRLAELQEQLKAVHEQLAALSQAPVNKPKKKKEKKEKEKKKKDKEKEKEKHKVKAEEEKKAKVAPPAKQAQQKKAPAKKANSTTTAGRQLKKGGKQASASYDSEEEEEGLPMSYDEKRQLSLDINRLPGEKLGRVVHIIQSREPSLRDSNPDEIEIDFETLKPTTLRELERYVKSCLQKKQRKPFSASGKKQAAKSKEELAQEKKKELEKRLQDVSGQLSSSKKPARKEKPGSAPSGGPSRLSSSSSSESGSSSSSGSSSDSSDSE
# Protocol: as §2, §3
# KBM7 cells = assay: Cell viability assay (CellTiter-Glo); format: cell-based, human; details: WT KBM7, 5.12 pM to 10 uM, n = 3 (Table S4)
# Protocol: as §4, with “[…],” for “3750 cells per well and treated for 3 days with DMSO or drug at ten √10 serial diluted concentrations. Starting concentration for all drugs was 10 μM,”
# K562 cells = assay: Cell viability assay (CellTiter-Glo); format: cell-based, human; details: WT K562, 5.12 pM to 10 uM, n = 3 (Table S4)
# Protocol: as §4, with “[…],” for “3750 cells per well and treated for 3 days with DMSO or drug at ten √10 serial diluted concentrations. Starting concentration for all drugs was 10 μM,”
# [1] = Homo sapiens, 72 h, 316 pM to 10 μM, 3 days, n = 6 (Figure 3C, Table S1), read-out: EC50 RKO WT
# [2] = Homo sapiens, 72 h, 316 pM to 10 μM, 3 days, n = 6 (Figure 3C, Table S1)
pEC50 (RKO WT cells; [1]),DC50 (BRD2) [nM],fold drop in BRD4 degradation potency (Dmax 50) when CRBN recruitment was outcompeted by pomalidomide (BRD4) [fold],pEC50 (BRD4),DC50 (BRD3) [nM],Compound,pEC50 (RKO CRBN KO cells; [2]),pEC50 (RKO CRBN/VHL dKO cells; [2]),pEC50 (RKO VHL KO cells; [2]),also measured
6.14,84,5.3,7.43,23,"Cc1ncsc1-c1ccc(CNC(=O)[C@@H]2C[C@@H](O)CN2C(=O)[C@@H](NC(=O)COCC(C)(COCCOCCOCCNC(=O)C[C@@H]2N=C(c3ccc(Cl)cc3)c3c(sc(C)c3C)-n3c(C)nnc32)COCCOCCOCCNc2cccc3c2C(=O)N(C2CCC(=O)NC2=O)C3=O)C(C)(C)C)cc1 (stereo partly drawn) [MN666 (1), (2S,4R)-1-((20S)-20-(tert-Butyl)-1-((S)-4-(4-chlorophenyl)-2,3,9-trimethyl-6H-thieno[3,2-f][1,2,4]triazolo[4,3-a][1,4]diazepin-6-yl)-14-((2-(2-(2-((2-(2,6-dioxopiperidin-3-yl)-1,3-dioxoisoindolin-4-yl)amino)ethoxy)ethoxy)ethoxy)methyl)-14-methyl-2,18-dioxo-6,9,12,16-tetraoxa-3,19-diazahenicosan-21-oyl)-4-hydroxy-N-(4-(4-methylthiazol-5-yl)benzyl)pyrrolidine-2-carboxamide]",6.15,5.80,6.47,
6.31,156,3.6,7.26,21,"Cc1ncsc1-c1ccc(CNC(=O)[C@@H]2C[C@@H](O)CN2C(=O)[C@@H](NC(=O)COCC(C)(COCCOCCNC(=O)C[C@@H]2N=C(c3ccc(Cl)cc3)c3c(sc(C)c3C)-n3c(C)nnc32)COCCOCCNc2cccc3c2C(=O)N(C2CCC(=O)NC2=O)C3=O)C(C)(C)C)cc1 (stereo partly drawn) [MN675 (2), (2S,4R)-1-((17S)-17-(tert-Butyl)-1-((S)-4-(4-chlorophenyl)-2,3,9-trimethyl-6H-thieno[3,2-f][1,2,4]triazolo[4,3-a][1,4]diazepin-6-yl)-11-((2-(2-((2-(2,6-dioxopiperidin-3-yl)-1,3-dioxoisoindolin-4-yl)amino)ethoxy)ethoxy)methyl)-11-methyl-2,15-dioxo-6,9,13-trioxa-3,16-diazaoctadecan-18-oyl)-4-hydroxy-N-(4-(4-methylthiazol-5-yl)benzyl)pyrrolidine-2-carboxamide]",6.22,5.69,6.06,"pEC50 (RKO WT cells; Homo sapiens, WT RKO, 316 pM to 10 μM, n = 3 (Table S4), read-out: EC50 RKO): 6.35; pEC50 (KBM7 cells; Homo sapiens, KBM-7): 6.76; pEC50 (K562 cells; Homo sapiens): 6.49"
,,,,,"Cc1sc2c(c1C)C(c1ccc(Cl)cc1)=N[C@@H](CC(=O)NCCCCCCCCNC(=O)COc1cccc3c1C(=O)N(C1CCC(=O)NC1=O)C3=O)c1nnc(C)n1-2 (some centres unmarked) [dBET6, reference compound]",,,,"pEC50 (RKO WT cells; 316 pM to 10 μM, 3 days, n = 6 (Figure 3C, Table S1), read-out: EC50 RKO WT): 6.55; pEC50 (RKO WT cells; 500 pM to 10 μM, 3 days (Figure 10, Table S6), read-out: EC50 RKO WT): 6.59; pEC50 (RKO WT cells; RKO WT, 316 pM to 10 μM, n = 6, combination: dBET6 and MZ1 each from 5 μM (Table S7), read-out: EC50 RKO): 6.97; pEC50 (RKO WT cells; WT RKO, 316 pM to 10 μM, n = 3 (Table S4), read-out: EC50 RKO): 6.57; pEC50 (RKO CRBN KO cells; Figure 10 experiment): < 5.00; pEC50 (RKO CRBN/VHL dKO cells; both VHL and CRBN knocked out (Figure 3C)): < 5.00; pEC50 (RKO VHL KO cells; 316 pM to 10 μM, 3 days, n = 6 (Figure 3C, Table S1)): 6.63; pEC50 (RKO VHL KO cells; 500 pM to 10 μM, 3 days (Figure 10, Table S6)): 6.54; pEC50 (KBM7 cells): 8.43; pEC50 (K562 cells): 8.19"
